Common to all, as to format: in vivo
The subject of data set [1] is C57BLKS db/db mice. Put plainly: 56 days study: lactate levels, fasting and after glucose application. Particulars: for Lactate 15 min after glucose application: 1 g/kg oral glucose; for Lactate fasting: serum, fasted 24 h. As for the experimental part: (§1) Female C57BLKS db/db mice obtained from M&B A/S (8680 Ry, Denmark) were used In the studies at 10 to 11 weeks of age. Mice were housed 10 per cage and allowed free access to water and chow (chow 3433, Provimi Kliba SA, 4303 Kaiseraugst, Switzerland).
(§2) Mice were allowed to acclimate to the local animal facilities for 1 week and retro-orbital blood samples were obtained 3 to 7 days prior to the start of the study.
(§3) Mice were treated with vehicle or a selected PDE4 inhibitor compound once daily in the morning. The selective PDE4 inhibitor compounds to be tested were suspended in 4% methocel and applied via oral gavage using oral feeding & dosing needles (outer diameter: 1.5 mm, TSE GmbH, 61350 Bad Homburg, Germany). A volume of 10 ml/kg body weight was administered for each dose.
(§4) 56 days studies: Mice were treated with vehicle or a selected PDE4 inhibitor compound once daily in the morning. On day 55, mice were fasted for 24 hours by removing chow 1 hour after drug application. On day 56, fasting blood glucose levels were measured and glucose tolerance was assessed by oral application of 1 g/kg/10 ml glucose. Blood was sampled 15 minutes after glucose application and levels of glucose (accu-chek, Roche Diagnostics GmbH, 68298 Mannheim, Germany) and lactate (lactate reagent, Sigma-Aldrich GmbH, 82039 Deisenhofen, Germany) were measured.

The subject of data set [2] is C57BLKS db/db mice. Put plainly: 56 days study: fasting blood glucose and oral glucose tolerance. To be noted: for Blood glucose 15 min after glucose application: 1 g/kg oral glucose; for Blood glucose fasting: fasted 24 h. The protocol: as §1, §2, §3, §4
Data set [3] concerns C57BLKS db/db mice. Put plainly: 10 days study: oral glucose tolerance, blood glucose 15 minutes after glucose application. To be noted: fasted 24 h, 15 minutes after 1 g/kg oral glucose. The protocol:
as §1, §2, §3
10 days studies: Mice were treated with vehicle or a selected PDE4 inhibitor compound once daily in the morning. On day 9, mice were fasted for 24 hours by removing chow 1 hour after drug application. On day 10, glucose tolerance was assessed by oral application of 1 g/kg/10 ml glucose. Blood was sampled 15 minutes after glucose application and levels of glucose (accu-chek, Roche Diagnostics GmbH, 68298 Mannheim, Germany) were measured.

For `COc1cc2c(cc1OC)[C@@H]1CCCC[C@@H]1N=C2c1ccc(OCC2CC2)c(OCC2CC2)c1` [COMPOUND A, (−)-cis-8,9-Dimethoxy-6-[3,4-bis-(cyclopropylmethoxy)phenyl]-1,2,3,4,4a,10b-hexahydrophenanthridine], the “Lactate 15 min after glucose application” value in the data set with C57BLKS db/db mice [1] (3 mg/kg oral once daily) was 70 mg/dL; in the data set with C57BLKS db/db mice [1] (30 mg/kg oral once daily), 61 mg/dL. In addition, the Lactate fasting turned out to be 49 mg/dL with C57BLKS db/db mice [1] (3 mg/kg oral once daily) and 43 mg/dL with C57BLKS db/db mice [1] (30 mg/kg oral once daily). Also, the entries for the “Blood glucose 15 min after glucose application” value with C57BLKS db/db mice [2] (3 mg/kg oral once daily) and with C57BLKS db/db mice [2] (30 mg/kg oral once daily) were 580 mg/dL and 352 mg/dL, respectively. For the same compound, the values for the Blood glucose fasting with C57BLKS db/db mice [2] (3 mg/kg oral once daily) and in the data set on C57BLKS db/db mice [2] (30 mg/kg oral once daily) were 279 mg/dL and 193 mg/dL, respectively. Moreover, the Blood glucose with C57BLKS db/db mice [3] (3 mg/kg oral once daily) was 507 mg/dL; in the data set with C57BLKS db/db mice [3] (30 mg/kg oral once daily) it was 411.5 mg/dL.
As for `COc1cc2c(cc1OC)[C@@H]1CCCC[C@@H]1N=C2c1ccc(C(=O)c2ccccc2)cc1` [COMPOUND B, (−)-cis-8,9-Dimethoxy-6-(4-benzoylphenyl)-1,2,3,4,4a,10b-hexahydrophenanthridine], the Blood glucose with C57BLKS db/db mice [3] (3 mg/kg oral once daily) was found to be 362 mg/dL; in the data set on C57BLKS db/db mice [3] (30 mg/kg oral once daily), 251 mg/dL.
Taken in the same sequence, the figures for `COc1cc2c(cc1OC)[C@@H]1CCCC[C@@H]1N=C2c1ccc(C(=O)O)cc1.Cl` [COMPOUND C, (+)-cis-8,9-Dimethoxy-6-(4-carboxyphenyl)-1,2,3,4,4a,10b-hexahydrophenanthridine Hydrochloride] were 506 mg/dL and 449 mg/dL.
Taken in the same sequence, the figures for `CCn1nnc(-c2ccc(C3=N[C@H]4CCCC[C@H]4c4cc(OC)c(OC)cc43)cc2)n1` [COMPOUND D, (−)-cis-6-[4-(2-Ethyl-2H-tetrazol-5-yl)-phenyl]-8,9-dimethoxy-1,2,3,4,4a,10b-hexahydrophenanthridine] were 437 mg/dL and 285 mg/dL.

The values are drawn from patent US7776893B2, “Use of PDE4 inhibitors for the treatment of diabetes mellitus” (NYCOMED GmbH, priority 2003, dated 2010).
